# Measurements: article PMC6048268, “Resveratrol Inhibits Key Steps of Steroid Metabolism in a Human Estrogen-Receptor Positive Breast Cancer Model: Impact on Cellular Proliferation” (Frontiers in Pharmacology, 2018)
# Several values for one entry are separate records, joined by “and”; a condition that tells them apart may be missing. Equal values may be shown once. Read-outs that look alike come from different tables or passages of the source.
# Legend:
# MCF-7 cells = conditions: for Vmax: MCF-7, precursor DHEA or E1 0–100 nM, Michaelis–Menten; for mean formation rate: MCF-7, 100 nM DHEA
# Procedure: (§1) Briefly, cartridges were preconditioned with 2 × 1.0 ml acetonitrile and 3 × 1.0 ml ammonium acetate buffer (10 mM, pH = 5.0), and the samples were loaded onto the columns. After washing with 1 × 1.0 ml ammonium acetate buffer (10 mM, pH = 5.0) and 2 × 1.0 ml acetonitrile/ammonium acetate buffer (10 mM, pH 5.0) 10:90 (v/v), the analytes were eluted using 2 × 650 μl acetonitrile/ammonium acetate buffer (10 mM, pH = 5.0) 95:5 (v/v) and evaporated until dry. Subsequently, samples were reconstituted in 270 μl acetonitrile/ammonium acetate buffer (10 mM, pH = 5.0) 25:75 (v/v) and stored at -80°C until further LC–HRMS analysis.
# (§2) After media collection, cell monolayers were washed five times with 2.0 ml DPBS, detached using 400 μl TrypLE® solution (37°C, 5 min), mixed with 600 μl DPBS and transferred into sample vials. Aliquots of these suspensions (100 μl each) were diluted and counted using the Casy® TT Cell Counter to determine the exact number of cells per sample well. The remaining cell suspensions (900 μl each) were gently centrifuged (1000 rpm, 8 min), and the supernatants were discarded. The cell pellets were subsequently resuspended in 100 μl aqueous ammonium acetate buffer (10 mM, pH = 5.0) and lysed by five freeze-thaw-cycles in liquid nitrogen (3 min each), followed by thawing at ambient temperature. Ammonium acetate buffer (1000 μl) was added, and the suspensions were centrifuged (14000 rpm, 5 min). Subsequently, the supernatants were concentrated using the same SPE protocol as described above. All processed samples were then stored at -80°C until further LC–HRMS analysis. For each condition, three biologically independent experiments were performed; the reported values represent the overall means ± SD of all values.
# (§3) LC was performed with an UltiMate 3000 RSLC-series system coupled to a maXis HD ESI-Qq-TOF mass spectrometer (Bruker Corporation, Bremen, Germany). A Phenomenex Luna® 3 μm C18(2) 100 Å LC column (250 mm × 4.6 mm I.D.; Phenomenex, Inc., Torrance, CA, United States), preceded by a Hypersil® BDS-C18 guard column (5 μm, 10 mm × 4.6 mm I.D.; Thermo Fisher Scientific, Inc.) was used for the separation of the analytes at a flow rate of 1.0 ml/min and a temperature of 43°C. […] The ESI ion source settings were as follows: capillary voltage: -4.5 kV; dry gas flow rate: 8.0 l/min N2; nebulizer: 1.0 bar N2; and dry temperature: 200°C. The ion transfer parameters were set to 400 Vpp funnel RF and 300 Vpp multipole RF, the quadrupole ion energy was 8.0 eV, and the collision cell parameters were as follows: collision RF, 1100 Vpp; collision energy, 10.0 eV; transfer time, 38 μs; and pre-pulse storage, 18 μs. In the range of m/z 150–500, full-scan mass spectra were recorded.
# (§4) The modes of inhibition were subsequently determined from Lineweaver–Burk plots, and the corresponding Ki values were calculated from Dixon plots using GraphPad Prism 6.0.
# MDA-MB-231 cells = conditions: for Km / Vmax: MDA-MB-231, precursor DHEA or E1 0–100 nM, Michaelis–Menten; for mean formation rate: MDA-MB-231, 100 nM DHEA
# Procedure: as §1, §2, §3, §4
# [1] = system: steroid metabolism in MCF-7 cells; assay: Inhibition of steroid metabolism by RES in MCF-7 cells (LC–HRMS); conditions: for formation rate in the presence of RES: 48 h
# Procedure: as §1, §2, §3, §4
# [2] = MCF-7, 100 nM DHEA + 100 μM RES
SMILES,"formation rate (MCF-7 cells; MCF-7, 100 nM E1, 48 h) [fmol/10^6 cells/h]",Vmax (MCF-7 cells; 48 h),"formation rate (MDA-MB-231 cells; MDA-MB-231, 100 nM E1, 48 h)",Km (MDA-MB-231 cells; 48 h) [µM],Vmax (MDA-MB-231 cells; 48 h) [fmol/10^6 cells/h],"Km ([1]; MCF-7, 0 μM RES) [µM]","Vmax ([1]; MCF-7, 0 μM RES) [fmol/10^6 cells/h]","Km ([1]; MCF-7, 5 μM RES) [µM]","Vmax ([1]; MCF-7, 5 μM RES)","Km ([1]; MCF-7, 10 μM RES) [µM]","Vmax ([1]; MCF-7, 10 μM RES)","Km ([1]; MCF-7, 25 μM RES) [µM]","Vmax ([1]; MCF-7, 25 μM RES)","Km ([1]; MCF-7, 50 μM RES) [µM]","Vmax ([1]; MCF-7, 50 μM RES)","Km ([1]; MCF-7, 100 μM RES) [µM]","Vmax ([1]; MCF-7, 100 μM RES)",mean formation rate (MCF-7 cells; 48 h) [fmol/10^6 cells/h],mean formation rate (MDA-MB-231 cells; 48 h) [fmol/10^6 cells/h],further results
"C[C@]12CC[C@@H]3c4ccc(O)cc4CC[C@H]3[C@@H]1CC[C@@H]2O [E2, 17β-estradiol]",233.9 ± 13.4,628.6 ± 62.0 fmol/10^6 cells/h,258.9 ± 25.1 fmol/10^6 cells/h,0.174 ± 0.0941,703.0 ± 164.5,0.169 ± 0.0117,628.6 ± 72.0,0.146 ± 0.0156,816.4 ± 76.6^∗ fmol/10^6 cells/h,0.155 ± 0.0097,1001.4 ± 43.0^∗ fmol/10^6 cells/h,0.153 ± 0.0136,1079.8 ± 71.4^∗ fmol/10^6 cells/h,0.172 ± 0.0143,1247.3 ± 56.2^∗ fmol/10^6 cells/h,0.174 ± 0.012,1302.2 ± 64.6^∗ fmol/10^6 cells/h,–,–,"formation rate in the presence of RES ([1]; MCF-7, 100 nM E1 + 100 μM RES): 471.5 ± 43.6 fmol/10^6 cells/h"
"C[C@]12CC[C@@H]3c4ccc(O[C@@H]5O[C@H](C(=O)O)[C@@H](O)[C@H](O)[C@H]5O)cc4CC[C@H]3[C@@H]1CC[C@@H]2O [E2-G, 17β-estradiol-3-O-(β-D-glucuronide)]",–,7.29 ± 1.36 fmol/10^6 cells/h and 7.29 ± 1.36^∗ fmol/10^6 cells/h,–,0.0879 ± 0.0322,0.33 ± 0.07,0.123 ± 0.0084,7.29 ± 0.36,0.135 ± 0.0059,7.00 ± 0.20 fmol/10^6 cells/h,0.136 ± 0.006,4.98 ± 0.14^∗ fmol/10^6 cells/h,0.132 ± 0.008,2.60 ± 0.12^∗ fmol/10^6 cells/h,0.126 ± 0.0132,1.51 ± 0.11^∗ fmol/10^6 cells/h,0.132 ± 0.0039,0.77 ± 0.02^∗ fmol/10^6 cells/h,–,–,"formation rate (MCF-7 cells; human, 48 h, 100 nM): 3.23 ± 0.45 fmol/10^6 cells/h; formation rate (MDA-MB-231 cells; human, 48 h, 100 nM): 0.18 ± 0.02 fmol/10^6 cells/h"
"C[C@]12CC[C@@H]3c4ccc(O)cc4CC[C@H]3[C@@H]1C[C@@H](O)[C@@H]2O [E3, 16α-hydroxy-17β-estradiol]",0.57 ± 0.06,–,below the LLOQ,–,–,–,–,–,–,–,–,–,–,–,–,–,–,–,–,–
"C[C@]12CC[C@@H]3c4ccc(OS(=O)(=O)O)cc4CC[C@H]3[C@@H]1CC[C@@H]2O [E2-S, 17β-estradiol-3-O-sulfate]",11.8 ± 0.8,24.7 ± 4.9 fmol/10^6 cells/h and 24.7 ± 4.9^∗ fmol/10^6 cells/h,0.12 ± 0.02 fmol/10^6 cells/h,0.038 ± 0.0136,0.16 ± 0.02,0.104 ± 0.0155,24.7 ± 4.9,0.106 ± 0.0159,6.64 ± 0.58^∗ fmol/10^6 cells/h,0.0993 ± 0.0128,2.34 ± 0.19^∗ fmol/10^6 cells/h,0.0949 ± 0.0147,1.01 ± 0.10^∗ fmol/10^6 cells/h,0.101 ± 0.0112,0.56 ± 0.01^∗ fmol/10^6 cells/h,0.0997 ± 0.006,0.27 ± 0.01^∗ fmol/10^6 cells/h,–,–,–
"C[C@]12CC[C@H]3[C@@H](CCC4=CC(=O)CC[C@@]43C)[C@@H]1CC[C@@H]2O [T, testosterone]",–,9.96 ± 1.42^∗ fmol/10^6 cells/h,–,0.0563 ± 0.0214,91.2 ± 15.9,0.107 ± 0.0063,9.95 ± 0.42,0.107 ± 0.0059,–,0.107 ± 0.0038,18.4 ± 0.7^∗ fmol/10^6 cells/h,0.106 ± 0.0024,26.7 ± 0.4^∗ fmol/10^6 cells/h,0.106 ± 0.004,35.9 ± 0.8^∗ fmol/10^6 cells/h,0.103 ± 0.0048,39.7 ± 1.1^∗ fmol/10^6 cells/h,4.78 ± 0.38,57.1 ± 6.2,"formation rate in the presence of RES [1, 2]: 19.4 ± 1.6 fmol/10^6 cells/h"
"C[C@]12CCC(=O)C=C1CC[C@@H]1[C@@H]2CC[C@]2(C)C(=O)CC[C@@H]12 [AD, 4-androstene-3,17-dione]",–,147.4 ± 8.1^∗ fmol/10^6 cells/h,–,0.126 ± 0.0366,1994.0 ± 364.5,0.115 ± 0.0096,147.4 ± 13.1,0.104 ± 0.0104,148.5 ± 9.4 fmol/10^6 cells/h,0.102 ± 0.0079,172.6 ± 7.7^∗ fmol/10^6 cells/h,0.112 ± 0.0107,242.0 ± 14.4^∗ fmol/10^6 cells/h,0.106 ± 0.0042,295.3 ± 9.4^∗ fmol/10^6 cells/h,0.0996 ± 0.0082,328.8 ± 12.9^∗ fmol/10^6 cells/h,68.5 ± 11.1,888.9 ± 60.1,"formation rate in the presence of RES [1, 2]: 165.1 ± 18.7 fmol/10^6 cells/h"
"C[C@]12CC[C@H](OS(=O)(=O)O)CC1=CC[C@@H]1[C@@H]2CC[C@]2(C)C(=O)CC[C@@H]12 [DHEA-S, dehydroepiandrosterone-3-O-sulfate]",–,2873.0 ± 327.4 fmol/10^6 cells/h and 2873.0 ± 527.4 fmol/10^6 cells/h and 2873.0 ± 327.4^∗ fmol/10^6 cells/h,–,0.0554 ± 0.0205,0.22 ± 0.04,0.329 ± 0.0522,2873.0 ± 57.4,0.312 ± 0.0719,2766.2 ± 53.9 fmol/10^6 cells/h,0.324 ± 0.0537,2280.1 ± 81.4^∗ fmol/10^6 cells/h,0.404 ± 0.0931,1797.6 ± 48.9^∗ fmol/10^6 cells/h,0.403 ± 0.0347,993.5 ± 74.8^∗ fmol/10^6 cells/h,0.385 ± 0.0466,522.5 ± 54.8^∗ fmol/10^6 cells/h,870.0 ± 79.1,0.14 ± 0.02,–
